From ChEMBL document CHEMBL1129151, “Stereoselective synthesis of lewis-associated trisaccharides as E-selectin inhibitors” (Bioorg Med Chem Lett, 1996)

How the values were obtained:
[1] = system: Mus musculus; assay: In vivo ability to inhibit lipoteichoic acid (LTA)-induced neutrophil accumulation in murine pleurisy model at a dose of 30 mg/kg upon iv administration; type: functional; conditions: for inhibition in vivo at 30 mg/kg: Mus musculus, iv; for Inhibition: 30 mg/kg
[2] = target: T1, E-selectin (Homo sapiens, UniProt P16581); assay: In vitro ability to inhibit the adhesion of HL-60 cells to purified recombinant human Selectin E; type: cell-based
T1 sequence (P16581 whole entry): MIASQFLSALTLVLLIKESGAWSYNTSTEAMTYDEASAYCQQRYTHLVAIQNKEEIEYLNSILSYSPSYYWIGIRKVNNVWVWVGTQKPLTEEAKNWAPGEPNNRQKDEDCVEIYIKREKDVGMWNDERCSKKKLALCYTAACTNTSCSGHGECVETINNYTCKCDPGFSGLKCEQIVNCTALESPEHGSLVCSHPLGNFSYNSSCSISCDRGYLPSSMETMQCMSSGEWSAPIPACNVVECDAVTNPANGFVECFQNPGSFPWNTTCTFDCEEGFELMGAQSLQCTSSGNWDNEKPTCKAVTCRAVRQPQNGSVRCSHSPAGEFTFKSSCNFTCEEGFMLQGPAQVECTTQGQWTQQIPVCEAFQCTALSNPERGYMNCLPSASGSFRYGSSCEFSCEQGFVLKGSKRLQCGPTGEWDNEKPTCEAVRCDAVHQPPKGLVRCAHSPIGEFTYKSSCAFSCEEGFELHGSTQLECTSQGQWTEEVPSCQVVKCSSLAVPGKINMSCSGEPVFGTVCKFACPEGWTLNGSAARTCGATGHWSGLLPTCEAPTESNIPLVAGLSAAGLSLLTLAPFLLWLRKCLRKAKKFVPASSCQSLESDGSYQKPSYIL

Structure (SMILES) | IC50 [2] | inhibition in vivo at 30 mg/kg [1] | Inhibition [1]
CCO[C@@H]1O[C@@H](CO)[C@@H](O[C@@H]2O[C@@H](CO)[C@H](O)C(O)[C@@H]2O)C(O[C@@H]2O[C@@H](C)[C@@H](O)[C@H](O)[C@@H]2O)[C@@H]1NC(=O)c1ccc2ccccc2c1 (single isomer, unassigned) | > 6.6 mM | 3% | –
CCO[C@@H]1O[C@@H](CO)[C@@H](O[C@@H]2O[C@H](C)[C@H](O)[C@H](O)[C@@H]2O)[C@H](O[C@@H]2O[C@@H](CO)[C@H](O)[C@H](O)[C@@H]2O)[C@@H]1NC(C)=O (stereo in doubt; 1) | > 6.6 mM | – | 37%
CCO[C@@H]1O[C@@H](CO)[C@@H](O[C@@H]2O[C@@H](CO)[C@H](O)C(O)[C@@H]2O)C(O[C@@H]2O[C@@H](C)[C@@H](O)[C@H](O)[C@@H]2O)[C@@H]1NC(C)=O (single isomer, unassigned) | > 6.6 mM | 31% | –

Further lines, with some results ahead:

IC50 [2] | Structure (SMILES) | inhibition in vivo at 30 mg/kg [1] | Inhibition [1]
> 6.6 mM | CCO[C@@H]1O[C@@H](CO)[C@@H](O[C@@H]2O[C@@H](C)[C@H](O)[C@H](O)[C@@H]2O)[C@H](O[C@@H]2O[C@@H](CO)[C@H](O)[C@H](O)[C@@H]2O)[C@@H]1NC(=O)c1ccc2ccccc2c1 (stereo in doubt; 2) | 49% | –
1.4 mM | CCO[C@@H]1O[C@@H](CO)[C@@H](O[C@@H]2O[C@H](C)[C@H](O)[C@H](O)[C@@H]2O)[C@H](O[C@@H]2O[C@@H](CO)[C@H](O)[C@H](O)[C@@H]2O)[C@@H]1NC(C)=O (stereo in doubt; 3) | 51% | –
2 mM | CCO[C@@H]1O[C@@H](CO)[C@@H](O[C@@H]2O[C@@H](C)[C@H](O)[C@H](O)[C@@H]2O)[C@H](O[C@@H]2O[C@@H](CO)[C@H](O)[C@H](O)[C@@H]2O)[C@@H]1NC(=O)c1ccc2ccccc2c1 (stereo in doubt; 4) | – | 62%
